Measured values published in ChEMBL document CHEMBL3886598, “Pyrazolyl-pyrimidine derivatives as kinase inhibitors” (2016).

Legend:
[1] = molecular target: T1, Tyrosine-protein kinase JAK3 (Homo sapiens, UniProt P52333); experiment: JAK3 Enzymatic Assay: The assay has been performed using the JAK3 kinase domain (residues 781-1124 of the 1124 amino acid long full-length sequence, accession number P52333 of UniProtKB/Swiss-Prot databse). […] The JAK3 kinase assay was run with a final enzyme concentration of 1 nM, in the presence of 22 uM ATP, 1 nM 33P-γ-ATP and 40 uM of substrate BioDBn*306 (Amino acid sequence: LPLDKDYYWREPGQ-SEQ ID NO: 1). The peptidic substrate was purchased from American Peptide Company (Sunnyvale, Calif.).
T1 sequence (P52333 whole entry): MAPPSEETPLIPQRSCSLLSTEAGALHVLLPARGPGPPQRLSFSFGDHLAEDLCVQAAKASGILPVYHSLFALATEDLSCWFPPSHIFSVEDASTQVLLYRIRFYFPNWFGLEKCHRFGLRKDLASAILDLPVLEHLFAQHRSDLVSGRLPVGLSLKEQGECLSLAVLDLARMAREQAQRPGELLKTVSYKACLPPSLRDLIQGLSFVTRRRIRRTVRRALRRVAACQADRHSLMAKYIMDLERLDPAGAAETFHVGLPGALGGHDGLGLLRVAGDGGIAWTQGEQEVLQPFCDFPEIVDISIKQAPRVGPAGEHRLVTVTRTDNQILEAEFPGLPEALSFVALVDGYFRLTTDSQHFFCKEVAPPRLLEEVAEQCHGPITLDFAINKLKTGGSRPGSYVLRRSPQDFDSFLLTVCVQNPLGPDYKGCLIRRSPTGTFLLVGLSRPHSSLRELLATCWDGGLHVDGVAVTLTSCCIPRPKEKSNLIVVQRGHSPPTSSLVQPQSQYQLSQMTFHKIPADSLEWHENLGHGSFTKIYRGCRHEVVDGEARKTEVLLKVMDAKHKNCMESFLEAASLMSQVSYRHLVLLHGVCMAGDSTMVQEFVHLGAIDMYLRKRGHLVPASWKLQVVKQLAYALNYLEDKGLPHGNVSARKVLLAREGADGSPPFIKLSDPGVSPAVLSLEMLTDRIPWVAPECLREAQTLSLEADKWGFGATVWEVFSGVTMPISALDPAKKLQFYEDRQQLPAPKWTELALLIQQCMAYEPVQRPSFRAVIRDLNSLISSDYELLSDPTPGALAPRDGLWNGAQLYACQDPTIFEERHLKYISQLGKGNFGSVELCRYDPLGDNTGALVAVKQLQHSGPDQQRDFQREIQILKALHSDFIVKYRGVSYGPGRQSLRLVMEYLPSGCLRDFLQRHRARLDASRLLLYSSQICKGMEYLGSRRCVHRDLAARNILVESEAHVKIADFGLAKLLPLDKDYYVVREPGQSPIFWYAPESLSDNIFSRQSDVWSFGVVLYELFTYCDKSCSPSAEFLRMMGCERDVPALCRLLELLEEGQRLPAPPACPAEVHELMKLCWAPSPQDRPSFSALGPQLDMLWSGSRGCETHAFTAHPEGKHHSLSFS

[2] = molecular target: Tyrosine-protein kinase JAK2 (Homo sapiens, UniProt O60674); experiment: JAK2 Enzymatic Assay: The assay has been performed using the commercial available JAK2 kinase domain (Invitrogen, Eugene, Oreg.). […] The JAK2 kinase assay was run with a final enzyme concentration of 1 nM, in the presence of 60 uM ATP, 3 nM 33P-γ-ATP and 64 uM of substrate BioDBn*306 (Aminoacid sequence: LPLDKDYYWREPGQ⿿SEQ ID NO: 1). The peptidic substrate was purchased from American Peptide Company (Sunnyvale, Calif.). Specific JAK2, JAK1 or JAK3 peptide substrates are trans-phosphorylated by JAKs kinase in the presence of ATP traced with 33P-γ-ATP. At the end of the phosphorylation reaction, the unreacted ATP, cold and radioactive, is captured by an excess of Dowex ion exchange resin that eventually settles by gravity to the bottom of the reaction plate. The supernatant is subsequently withdrawn and transferred into a counting plate that is then evaluated by […].
Tyrosine-protein kinase JAK2, sequence (O60674 whole entry, the tested form may be a part): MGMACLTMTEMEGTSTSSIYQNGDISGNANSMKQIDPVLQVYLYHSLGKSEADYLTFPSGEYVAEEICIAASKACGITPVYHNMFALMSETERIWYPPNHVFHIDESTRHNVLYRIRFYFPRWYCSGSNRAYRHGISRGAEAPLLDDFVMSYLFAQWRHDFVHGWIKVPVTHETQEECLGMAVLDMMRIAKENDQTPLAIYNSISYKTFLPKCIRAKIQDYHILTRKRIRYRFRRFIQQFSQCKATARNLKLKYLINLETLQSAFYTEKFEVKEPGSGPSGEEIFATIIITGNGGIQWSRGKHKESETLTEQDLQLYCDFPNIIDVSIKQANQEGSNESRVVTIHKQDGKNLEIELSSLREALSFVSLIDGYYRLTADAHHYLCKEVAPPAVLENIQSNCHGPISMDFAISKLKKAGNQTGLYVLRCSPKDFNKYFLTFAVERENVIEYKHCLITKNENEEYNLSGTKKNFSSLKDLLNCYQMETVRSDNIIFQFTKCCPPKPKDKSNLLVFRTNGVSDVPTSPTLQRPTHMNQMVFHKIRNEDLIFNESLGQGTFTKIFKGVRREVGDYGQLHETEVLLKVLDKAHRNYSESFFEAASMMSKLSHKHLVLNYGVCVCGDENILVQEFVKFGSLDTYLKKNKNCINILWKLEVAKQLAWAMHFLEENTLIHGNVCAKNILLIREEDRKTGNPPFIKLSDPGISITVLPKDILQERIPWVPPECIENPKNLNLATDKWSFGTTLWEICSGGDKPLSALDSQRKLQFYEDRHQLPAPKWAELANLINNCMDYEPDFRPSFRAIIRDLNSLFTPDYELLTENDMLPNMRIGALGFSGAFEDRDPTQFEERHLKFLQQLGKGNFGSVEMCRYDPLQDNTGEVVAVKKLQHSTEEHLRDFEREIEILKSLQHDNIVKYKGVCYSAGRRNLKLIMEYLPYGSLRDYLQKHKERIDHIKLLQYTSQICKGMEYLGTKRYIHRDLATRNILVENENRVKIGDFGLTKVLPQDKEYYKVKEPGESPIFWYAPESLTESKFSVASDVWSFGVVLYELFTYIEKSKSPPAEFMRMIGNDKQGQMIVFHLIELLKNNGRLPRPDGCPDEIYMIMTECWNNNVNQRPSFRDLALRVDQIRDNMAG

With CCc1ccc(Cl)cc1-n1nc(-c2ccnc(N)n2)cc1C(N)=O the IC50 [1] was under 5 µM and the IC50 [2] was under 5 µM.
